These results are taken from BindingDB's records for doi:10.1016/j.bmcl.2003.12.089 (Ligand Pharmaceuticals, 2004).

Assay [1] deals with Retinoic acid receptor beta (Homo sapiens) (UniProt P10826). The assay can be described thus: Binding affinity against retinoic acid receptor beta by [3H]ATRA displacement.
The target of assay [2] is Retinoic acid receptor gamma (Homo sapiens) (UniProt P13631). In words: Binding affinity against retinoic acid receptor gamma by [3H]ATRA displacement.

Structures are written as SMILES. Bounds are passed on as bounds.

Chain of Retinoic acid receptor beta (Homo sapiens) (P10826 whole entry, looked up): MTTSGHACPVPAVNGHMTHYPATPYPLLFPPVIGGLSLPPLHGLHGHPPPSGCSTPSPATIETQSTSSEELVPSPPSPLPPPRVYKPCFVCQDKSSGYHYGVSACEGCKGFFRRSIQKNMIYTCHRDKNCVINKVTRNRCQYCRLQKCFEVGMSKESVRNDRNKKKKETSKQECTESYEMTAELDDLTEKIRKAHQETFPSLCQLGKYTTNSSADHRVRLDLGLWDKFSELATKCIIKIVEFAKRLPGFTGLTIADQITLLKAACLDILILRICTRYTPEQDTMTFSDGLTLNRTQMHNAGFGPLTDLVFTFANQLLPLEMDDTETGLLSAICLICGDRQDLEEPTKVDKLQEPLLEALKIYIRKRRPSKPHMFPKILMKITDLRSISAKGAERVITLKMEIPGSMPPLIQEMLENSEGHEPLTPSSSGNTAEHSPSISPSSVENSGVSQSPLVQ
Chain of Retinoic acid receptor gamma (Homo sapiens) (P13631 whole entry, looked up): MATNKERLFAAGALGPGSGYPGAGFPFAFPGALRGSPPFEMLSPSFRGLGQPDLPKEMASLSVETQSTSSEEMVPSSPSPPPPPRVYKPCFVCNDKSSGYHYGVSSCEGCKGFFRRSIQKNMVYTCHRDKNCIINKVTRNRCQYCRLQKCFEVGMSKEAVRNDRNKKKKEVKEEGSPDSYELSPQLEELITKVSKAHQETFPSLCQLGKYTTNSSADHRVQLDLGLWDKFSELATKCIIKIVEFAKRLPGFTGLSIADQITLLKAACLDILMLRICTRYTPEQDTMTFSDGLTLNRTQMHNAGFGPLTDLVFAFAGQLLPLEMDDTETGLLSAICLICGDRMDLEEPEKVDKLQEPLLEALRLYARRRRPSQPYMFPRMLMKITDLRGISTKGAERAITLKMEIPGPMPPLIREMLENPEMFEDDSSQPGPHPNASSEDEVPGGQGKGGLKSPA

For the compound `C/C(=C\C(=O)O)c1cc2c(-c3cc(C(C)(C)C)cc(C(C)(C)C)c3C)cccc2s1` [(E)-3-[4-(3,5-Di-tert-butyl-2-methyl-phenyl)-benzo[b]thiophen-2-yl]-but-2-enoic acid], the inhibition constant Ki in assay [1] and in assay [2] was more than 10 µM throughout. As for `C/C(=C\C(=O)O)c1cc2cccc(-c3cc(C(C)C)cc(C(C)C)c3OCCCF)c2o1` [(E)-3-{7-[2-(3-Fluoro-propoxy)-3,5-diisopropyl-phenyl]-benzofuran-2-yl}-but-2-enoic acid], the Ki in assay [1] and in assay [2] was more than 10 µM each time. As to `C/C(=C\C(=O)O)c1cc2c(-c3cc(C(C)(C)C)cc(C(C)(C)C)c3OCC(F)(F)F)cccc2s1` [(E)-3-{4-[3,5-Di-tert-butyl-2-(2,2,2-trifluoro-ethoxy)-phenyl]-benzo[b]thiophen-2-yl}-but-2-enoic acid], the Ki in assay [1] and in assay [2] was more than 10 µM in each case. As to `CCOc1c(-c2cccc3cc(/C(C)=C/C(=O)O)sc23)cc(C(C)C)cc1C(C)C` [(E)-3-[7-(2-Ethoxy-3,5-diisopropyl-phenyl)-benzo[b]thiophen-2-yl]-but-2-enoic acid], in assay [2], the inhibition constant Ki is more than 10 µM. Turning to `C/C(=C\C(=O)O)c1cc2cccc(-c3cc(C(C)C)cc(C(C)C)c3OCC(F)(F)F)c2o1` [(E)-3-{7-[3,5-Diisopropyl-2-(2,2,2-trifluoro-ethoxy)-phenyl]-benzofuran-2-yl}-but-2-enoic acid], the Ki in assay [1] was 2.7 µM; in assay [2], more than 10 µM. For the compound `C/C(=C\C(=O)O)c1cc2c(-c3cc(C(C)(C)C)cc(C(C)(C)C)c3OCCCF)cccc2s1` [(E)-3-{4-[3,5-Di-tert-butyl-2-(3-fluoro-propoxy)-phenyl]-benzo[b]thiophen-2-yl}-but-2-enoic acid], the inhibition constant Ki in assay [1] and in assay [2] was more than 10 µM throughout.

As for `CCCOc1c(-c2cccc3cc(/C(C)=C/C(=O)O)oc23)cc(C(C)C)cc1C(C)C` [(E)-3-[7-(3,5-Diisopropyl-2-propoxy-phenyl)-benzofuran-2-yl]-but-2-enoic acid], the values for the Ki in assay [1] and in assay [2] were 9.2 µM and more than 10 µM, respectively.

`CCOc1c(-c2cccc3sc(/C(C)=C/C(=O)O)cc23)cc(C(C)C)cc1C(C)C` [(E)-3-[4-(2-Ethoxy-3,5-diisopropyl-phenyl)-benzo[b]thiophen-2-yl]-but-2-enoic acid]: the inhibitory constant (Ki) turned out to be 5.94 µM in assay [1] and 10 µM in assay [2]. Regarding `CCCCCCCOc1c(-c2cccc3sc(/C(C)=C/C(=O)O)cc23)cc(C(C)(C)C)cc1C(C)(C)C` [(E)-3-[4-(3,5-Di-tert-butyl-2-heptyloxy-phenyl)-benzo[b]thiophen-2-yl]-but-2-enoic acid], the inhibition constant Ki in assay [1] and in assay [2] was more than 10 µM throughout. Consider `C/C(=C\C(=O)O)c1cc2c(-c3cc(C(C)(C)C)cc(C(C)(C)C)c3OCCC(F)F)cccc2s1` [(E)-3-{4-[3,5-Di-tert-butyl-2-(3,3-difluoro-propoxy)-phenyl]-benzo[b]thiophen-2-yl}-but-2-enoic acid], for which the Ki in assay [1] and in assay [2] was more than 10 µM throughout.

Regarding `CCCOc1c(-c2cccc3sc(/C(C)=C/C(=O)O)cc23)cc(C(C)C)cc1C(C)C` [(E)-3-[4-(3,5-Diisopropyl-2-propoxy-phenyl)-benzo[b]thiophen-2-yl]-but-2-enoic acid], the Ki in assay [1] and in assay [2] was more than 10 µM each time.

For the compound `CCCCOc1c(-c2cccc3cc(/C(C)=C(\F)C(=O)O)oc23)cc(C(C)C)cc1C(C)C` [(Z)-3-[7-(2-Butoxy-3,5-diisopropyl-phenyl)-benzofuran-2-yl]-2-fluoro-but-2-enoic acid], the inhibitory constant (Ki) in assay [1] and in assay [2] was more than 10 µM in each case. In the case of `C/C(=C\C(=O)O)c1cc2c(-c3cc(C(C)(C)C)cc(C(C)(C)C)c3OCC(F)F)cccc2s1` [(E)-3-{4-[3,5-Di-tert-butyl-2-(2,2-difluoro-ethoxy)-phenyl]-benzo[b]thiophen-2-yl}-but-2-enoic acid], the Ki in assay [1] and in assay [2] was more than 10 µM in each case.

In the case of `C/C(=C\C(=O)O)c1cc2cccc(-c3cc(C(C)C)cc(C(C)C)c3OCC(F)F)c2o1` [(E)-3-{7-[2-(2,2-Difluoro-ethoxy)-3,5-diisopropyl-phenyl]-benzofuran-2-yl}-but-2-enoic acid], the inhibition constant Ki in assay [1] and in assay [2] was more than 10 µM throughout. In the case of `CCOc1c(-c2cccc3cc(/C(C)=C/C(=O)O)oc23)cc(C(C)C)cc1C(C)C` [(E)-3-[7-(2-Ethoxy-3,5-diisopropyl-phenyl)-benzofuran-2-yl]-but-2-enoic acid], the Ki in assay [1] and in assay [2] was more than 10 µM in each case. In the case of `C/C(=C/C=C/C(C)=C/C(=O)O)c1cc(C(C)(C)C)cc(C(C)(C)C)c1OCC(F)F` [7-[3,5-Di-tert-butyl-2-(2,2-difluoro-ethoxy)-phenyl]-3-methyl-octa-2,4,6-trienoic acid], the Ki in assay [1] and in assay [2] was more than 1 µM throughout.

As for `C/C(=C(/F)C(=O)O)c1cc2cccc(-c3cc(C(C)C)cc(C(C)C)c3OCC(F)F)c2o1` [(Z)-3-{7-[2-(2,2-Difluoro-ethoxy)-3,5-diisopropyl-phenyl]-benzofuran-2-yl}-2-fluoro-but-2-enoic acid], the inhibitory constant (Ki) in assay [1] and in assay [2] was more than 10 µM each time.

Broadly, the Ki is a measure of affinity in units of concentration, obtained from inhibition or displacement.
